The target in this test is T1, aldosterone synthase (CYP11B2) (Homo sapiens, UniProt P19099).
T1 sequence (P19099 25-503): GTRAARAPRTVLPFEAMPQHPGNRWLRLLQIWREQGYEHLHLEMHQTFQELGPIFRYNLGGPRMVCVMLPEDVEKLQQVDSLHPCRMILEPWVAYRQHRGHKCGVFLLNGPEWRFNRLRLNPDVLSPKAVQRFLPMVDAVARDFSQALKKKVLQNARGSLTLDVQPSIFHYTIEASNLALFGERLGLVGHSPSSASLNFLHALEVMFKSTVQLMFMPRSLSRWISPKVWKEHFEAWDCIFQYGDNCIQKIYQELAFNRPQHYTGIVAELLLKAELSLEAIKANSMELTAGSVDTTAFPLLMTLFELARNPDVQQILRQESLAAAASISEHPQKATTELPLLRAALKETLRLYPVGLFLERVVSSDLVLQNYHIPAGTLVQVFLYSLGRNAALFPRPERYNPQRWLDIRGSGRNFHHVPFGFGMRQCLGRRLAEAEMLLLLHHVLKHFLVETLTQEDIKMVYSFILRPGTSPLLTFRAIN
Nature of the test: aldosterone production by cells expressing the recombinant enzyme. Format: cell-based.

The structures appear in SMILES notation.

As usually defined, the Ki is the equilibrium dissociation constant of an inhibitor or competing ligand from its target. Consider `CCC(=O)N[C@@H]1CCCc2c(-c3ccc4c(c3)CCC(=O)N4C)cncc21` [RO6836191], for which the Ki was found to be 13 nM.

The values are drawn from publication PMC5142369 (Hypertension (Dallas, Tex. : 1979), 2016).
